These results are taken from ChEMBL document CHEMBL3045763, “Synthesis and evaluation of anti-proliferative activity of 1,4-disubstituted phthalazines” (Med Chem Res, 2012).

In the assay the test system is MCF7. In words: Antiproliferative activity against Homo sapiens (human) MCF7 cells after 72 hr by SRB assay. The format is functional, cell-based. The following applies: MCF7, 72 h.
Usually IC50 stands for the midpoint of a concentration-inhibition curve. In turn, `COc1ccc(N2CCN(c3nnc(-c4ccc(Br)cc4)c4ccccc34)CC2)cc1` gave an IC50 of 17.5 µM. The figure for `CCOc1ccccc1N1CCN(c2nnc(-c3ccc(Br)cc3)c3ccccc23)CC1` is 4.77 µM; for `Brc1ccc(-c2nnc(N(Cc3ccccc3)Cc3ccccc3)c3ccccc23)cc1` it is 4.8 µM. As to `Brc1ccc(-c2nnc(N3CCOCC3)c3ccccc23)cc1`, the concentration for half-maximal inhibition (IC50) was found to be 1.9 µM.

In the case of `Brc1ccc(-c2nnc(N3CCCCC3)c3ccccc23)cc1`, the half-inhibitory concentration (IC50) is 9.1 µM. To `Brc1ccc(-c2nnc(Sc3nc4ccccc4s3)c3ccccc23)cc1` belongs 2.3 µM; to `Clc1cccc(Cl)c1Nc1nnc(-c2ccc(Br)cc2)c2ccccc12`, 1.7 µM; to `Brc1ccc(-c2nnc(Nc3nccs3)c3ccccc23)cc1`, 1.4 µM. Take `Clc1ncccc1Nc1nnc(-c2ccc(Br)cc2)c2ccccc12`: the midpoint of inhibition, the IC50, lay at 1.7 µM.

`CN1CCN(c2nnc(-c3ccc(Br)cc3)c3ccccc23)CC1` had an IC50 of 1.5 µM. Turning to `Brc1ccc(-c2nnc(N3CCN(c4ccccc4)CC3)c3ccccc23)cc1`, the half-inhibitory concentration (IC50) was found to be 9.7 µM. `COc1ccccc1N1CCN(c2nnc(-c3ccc(Br)cc3)c3ccccc23)CC1` displayed a 50% inhibitory concentration (IC50) of 8.6 µM.
